# In PMC9959048, “Lipidation of Naturally Occurring α-Helical Antimicrobial Peptides as a Promising Strategy for Drug Design” (International Journal of Molecular Sciences, 2023):
# Residues, ends and D or L forms follow the SMILES beside them. *: point of attachment. Decanoyl = CCCCCCCCCC(=O)*; Octanoyl = CCCCCCCC(=O)*
# Legend:
# C. parapsilosis CCM 8260 = format: cell-based, Candida parapsilosis; settings: RPMI-1640 with MOPS and 2% glucose, inoculum 5 × 10^3 CFU/mL, 24 h, 35 °C, absorbance 600 nm, triplicate
# Description: (§1) The evaluation of the antimicrobial activity of the synthesized lipopeptides was performed against the following reference bacterial and fungal strains: Staphylococcus aureus PCM 1650, Staphylococcus aureus PCM 2054, Staphylococcus epidermidis PCM 521, Staphylococcus epidermidis PCM 2118, Escherichia coli PCM 2057, Candida albicans PCM 2566, Candida glabrata CCM 8270, Candida krusei CCM 8271, Candida parapsilosis CCM 8260.
# (§2) For the initial cultivation of the bacteria and fungi, Luria-Bertani broth (LB, Biomaxima, Lublin, Poland) and Sabouraud Dextrose broth (SB, Biomaxima, Lublin, Poland) were used, respectively. Antimicrobial properties of the compounds were analyzed through the determination of MIC (minimal inhibitory concentrations) by my means of the serial micro-dilution technique according to the guidelines of Clinical & Laboratory Standard Institute (CLSI) established for aerobic bacteria and yeasts.
# (§3) According to the procedures, Mueller–Hinton broth (MHB) was used as the working medium for the analysis of the bacterial susceptibility, while RPMI-1640 (with L-glutamine, without sodium bicarbonate) growth medium buffered with MOPS (morpholinepropanesulfonic acid) and supplemented with 2% glucose was used for the experiments with the fungi.
# (§4) The experiments were carried out for 24 h at 37 and 35 °C for the bacteria and fungi, respectively. Then, the absorbance was measured at 600 nm for each well of the 96-well plate using a microplate reader (Sunrise TM, Tecan Trading AG, Männedorf, Switzerland). Based on the obtained results, the degree of inhibition of the growth of microorganisms (expressed in %) in the presence of the tested compounds range was determined with respect to the control probes. Inoculated wells without peptide were treated as a positive control (100% growth), and the wells containing working medium only were defined as a negative control (0% growth). All measurements were repeated in triplicate.
# E. coli PCM2057 = format: cell-based, Escherichia coli; settings: Mueller–Hinton broth, inoculum 5 × 10^5 CFU/mL, 24 h, 37 °C, absorbance 600 nm, triplicate
# Description: as §1, §2, §3, §4
# S. epidermidis PCM521 = format: cell-based, Staphylococcus epidermidis; settings: Mueller–Hinton broth, inoculum 5 × 10^5 CFU/mL, 24 h, 37 °C, absorbance 600 nm, triplicate
# Description: as §1, §2, §3, §4
# S. epidermidis PCM2118 = format: cell-based, Staphylococcus epidermidis; settings: Mueller–Hinton broth, inoculum 5 × 10^5 CFU/mL, 24 h, 37 °C, absorbance 600 nm, triplicate
# Description: as §1, §2, §3, §4
# S. aureus PCM2054 = format: cell-based, Staphylococcus aureus; settings: Mueller–Hinton broth, inoculum 5 × 10^5 CFU/mL, 24 h, 37 °C, absorbance 600 nm, triplicate
# Description: as §1, §2, §3, §4
# [1] = test system: human prostate cancer cells (PC3 line, ATCC); experiment: MTT cytotoxicity assay; format: cell-based; settings: IC50 against HaCaT divided by IC50 for PC3
# Description: (§5) The prepared plates were further incubated for 48 h. […] The control cell viability was assumed to be 100%. Three independent experiments were carried out in three repetitions.
# [2] = test system: human breast cancer cells (MCF-7 line, ATCC); experiment: MTT cytotoxicity assay; format: cell-based; settings: IC50 against HaCaT divided by IC50 for MCF-7
# Description: as §5
# C. krusei CCM8271 = format: cell-based, Candida krusei; settings: RPMI-1640 with MOPS and 2% glucose, inoculum 5 × 10^3 CFU/mL, 24 h, 35 °C, absorbance 600 nm, triplicate
# Description: as §1, §2, §3, §4
# C. albicans PCM2566 = format: cell-based, Candida albicans; settings: RPMI-1640 with MOPS and 2% glucose, inoculum 5 × 10^3 CFU/mL, 24 h, 35 °C, absorbance 600 nm, triplicate
# Description: as §1, §2, §3, §4
# POPG liposomes = experiment: CD, α-helix content in POPG liposomes; format: physicochemical; settings: 25 °C, peptide 0.15 mg/mL, 1.3 mM POPG, from ellipticity at 222 nm
# Description: (§6) Large unilamellar vesicles (LUV) were obtained by extrusion of MLV liposomes through polycarbonate membrane filters with a pore diameter of 100 nm (Whatman International Ltd., Kent, UK) using a mini-extruder (Avanti Polar Lipids, Inc., Alabaster, AL, USA).
# (§7) CD experiments were carried out at 25 °C using a Jasco J-815 spectropolarimeter in the wavelength range 185–260 nm. The concentration of the lipopeptides was 0.15 mg/mL. The CD spectra were recorded in water, PBS (pH 7.4), 1.3 mM POPC and 1.3 mM POPG. The results are plotted as the mean molar ellipticity per one amino acid residue (MRME, deg cm^2 dmol^−1) as a function of the wavelength (nm). Additionally, we performed a conformational analysis of the selected compounds in the presence of S. aureus cells. […] The mixtures were then incubated for 2 h before recording the CD spectra.
# (§8) The percentage of the α-helical structure was calculated based on the mean molar ellipticity at 222 nm using the formula: fH=θ222−3000/−36000−3000·100% where θ222 corresponds to the value of the mean molar ellipticity at a wavelength of 222 nm.
# C. glabrata CCM8270 = format: cell-based, Candida glabrata; settings: RPMI-1640 with MOPS and 2% glucose, inoculum 5 × 10^3 CFU/mL, 24 h, 35 °C, absorbance 600 nm, triplicate
# Description: as §1, §2, §3, §4
# POPC liposomes = experiment: CD, α-helix content in POPC liposomes; format: physicochemical; settings: 25 °C, peptide 0.15 mg/mL, 1.3 mM POPC; for α-Helix percentage, POPC: from ellipticity at 222 nm
# Description: as §6, §7, §8
# POPG LUVs = experiment: Isothermal titration calorimetry, binding to POPG LUVs; settings: ITC, 25 °C, 0.05 or 0.07 mM peptide titrated with 1.3 or 1.8 mM POPG LUVs; one set of sites model (C10-LL-I: two sets of sites, first line)
# Description: as §6
# The thermodynamic parameters of the interactions of the lipopeptides with POPG and POPC liposomes were determined by isothermal titration calorimetry (ITC). Measurements were performed at 25 °C using an AutoITC microcalorimeter (MicroCal Inc., Northampton, MA, USA) with a 1.4491 mL sample and reference cells. The experiment consisted in the titration of a buffered peptide solution with a concentration of 0.05 and/or 0.07 mM with a buffered solution containing POPG or POPC LUVs with a lipid concentration of 1.3 and 1.8 mM (10.02 µL; 29 injections, 2 µL for the first injection only), as it was described previously. The result of the titration was a thermogram showing a series of peaks corresponding to the titration steps. A titration curve was obtained after integration of the peak areas. The obtained isotherms were fitted to the “one set of sites” or “two sets of sites” models available in the ORIGIN 7.0 (MicroCal Inc., Northampton, MA, USA), which made it possible to determine the enthalpy (ΔH), the binding constant (KITC) and the stoichiometry (N) of the interactions between the lipopeptide and the lipids. The following formula was used to calculate the entropy change (ΔS) and the Gibbs free energy (ΔG): ΔG=−RTln(55.5KITC)=ΔH−TΔS where: factor 55.5 is the molar concentration of water, R is the gas constant (1.986 cal·mol^−1·K^−1), and T is the absolute temperature.
# [3] = Dynamic light scattering of lipopeptide assemblies; format: physicochemical; settings: DLS, sonicated 10 min, incubated 1 h, 90° side scatter
# Description: The hydrodynamic diameters of the lipopeptide nanoaggregates were examined by the Litesizer 500 (Anton-Paar GmbH, Graz, Austria) at 25 °C. The measurements were carried out at various lipopeptide concentrations ranging from 0.5 to 2 mM and from 0.25 to 2 mM, in water and PBS, respectively. Two-fold serial dilutions were used to obtain the sequential concentrations. Each sample was sonicated for 10 min followed by incubation for 1 h at 25 °C and transferred to the polystyrene cuvette. The detector was positioned at a side scatter position (90°). The analysis of the obtained results and report generation was performed with KalliopeTM software (Anton-Paar GmbH, Graz, Austria).
Compound,"MIC, C. parapsilosis CCM 8260 (C. parapsilosis CCM 8260) [µg/mL]","MIC, E. coli PCM2057 (E. coli PCM2057) [µg/mL]","MIC, S. epidermidis PCM521 (S. epidermidis PCM521) [µg/mL]","MIC, S. epidermidis PCM2118 (S. epidermidis PCM2118) [µg/mL]","MIC, S. aureus PCM2054 (S. aureus PCM2054) [µg/mL]",SI PC3 [1],SI MCF-7 [2],"MIC, C. krusei CCM8271 (C. krusei CCM8271) [µg/mL]","MIC, C. albicans PCM2566 (C. albicans PCM2566) [µg/mL]","α-Helix percentage, POPG (POPG liposomes) [%]","MIC, C. glabrata CCM8270 (C. glabrata CCM8270) [µg/mL]","θ222/θ208, POPC (POPC liposomes)","α-Helix percentage, POPC (POPC liposomes) [%]","pKITC, POPG (POPG LUVs)","hydrodynamic diameter, peak of highest scattering intensity ([3]; 0.25 mM in PBS pH 7.4, 25 °C) [nm]","hydrodynamic diameter, peak of highest scattering intensity ([3]; 0.5 mM salt-free aqueous solution, 25 °C) [nm]","hydrodynamic diameter ([3]; 2 mM in PBS pH 7.4, 25 °C) [nm]"
CCCCCCCC(=O)N[C@@H](CCCCN)C(=O)N[C@@H](CCCNC(=N)N)C(=O)N[C@@H](Cc1ccccc1)C(=O)N[C@@H](CCCCN)C(=O)N[C@@H](CCCCN)C(=O)N[C@@H](Cc1ccccc1)C(=O)N[C@@H](Cc1ccccc1)C(=O)N[C@@H](CCCCN)C(=O)N[C@@H](CCCCN)C(=O)N[C@@H](CC(C)C)C(=O)N[C@@H](CCCCN)C(N)=O [C8-ATRA-1] (Octanoyl-KRFKKFFKKLK-NH2),50,>50,3.13,3.13,7.8,2.29,8.55,12.5,>50,20,>50,0.38,11,5.78 ± 0.27,,,
CCCCCCCCCC(=O)N[C@@H](CCCCN)C(=O)N[C@@H](CCCNC(=N)N)C(=O)N[C@@H](Cc1ccccc1)C(=O)N[C@@H](CCCCN)C(=O)N[C@@H](CCCCN)C(=O)N[C@@H](Cc1ccccc1)C(=O)N[C@@H](Cc1ccccc1)C(=O)N[C@@H](CCCCN)C(=O)N[C@@H](CCCCN)C(=O)N[C@@H](CC(C)C)C(=O)N[C@@H](CCCCN)C(N)=O [C10-ATRA-1] (Decanoyl-KRFKKFFKKLK-NH2),25,31.25,3.13,3.13,3.9,3.92,9.47,12.5,50,17,>50,0.65,14,7.06 ± 0.61,2808 ± 1193,284 ± 105,1040 ± 343
